Experimental data reported in patent US12083129B2, “Treatment of breast cancer using combination therapies comprising an ATP competitive AKT inhibitor, a CDK4/6 inhibitor, and fulvestrant” (Genentech, Inc., priority 2019, dated 2024).

Test system: breast cancer cell lines
Test: single agent sensitivity of breast cancer cell lines
Type: cell-based
Settings: FIG. 1A and 1B
Procedure: Cell lines were treated with agents described herein (e.g. ipatasertib, palbociclib, and fulvestrant). […] (See FIG. 1A and FIG. 1B). There was synergy between ipatasertib and palbociclib as show by the BLISS scores of FIGS. 2A, 2B, 2C, and 2D. […] The percent weight loss resulting from treatment is shown by FIGS. 8A and 8B.

| Structure (SMILES) | single agent sensitivity of breast cancer cell lines |
| --- | --- |
| CC(C)NC[C@@H](C(=O)N1CCN(c2ncnc3c2[C@H](C)C[C@H]3O)CC1)c1ccc(Cl)cc1 [ipatasertib, (S)-2-(4-chlorophenyl)-1-(4-((5R,7R)-7-hydroxy-5-methyl-6,7-dihydro-5H-cyclopenta[d]pyrimidin-4-yl)piperazin-1-yl)-3-(isopropylamino)propan-1-one] | differential single agent sensitivity |
| CC(=O)c1c(C)c2cnc(Nc3ccc(N4CCNCC4)cn3)nc2n(C2CCCC2)c1=O [palbociclib, 6-acetyl-8-cyclopentyl-5-methyl-2-{[5-(piperazin-1-yl)pyridin-2-yl]amino}pyrido[2,3-d]pyrimidin-7(8H)-one] | differential single agent sensitivity |
